Data published in US20250213560A1, “NITROGEN-CONTAINING HETEROCYCLIC COMPOUNDS HAVING PHENYL GROUP AND USES THEREOF” (BNH RESEARCH CO., LTD., priority 2022, published 2025).

How the values were obtained:
293T cells = assay: Cytotoxicity test (CCK-8 cell viability) in 293T cells; type: cell-based, human; settings: 293T cell line
Procedure: Human undifferentiated neuroblastoma cell line SH-SY5Y and human embryonic kidney cell line (HEK)-293T were purchased from Korean Cell Line Bank (Korea) and Takara (Japan), respectively. Cells were grown in HyClone Minimal Essential Medium (MEM) and Dulbecco's Modified Eagle Medium (DMEM), respectively, supplemented with 10% (v/v) fetal bovine serum (FBS), penicillin (100 U/mL), and streptomycin ([…]). Cells were maintained in a humidified atmosphere of 95% air and 5% CO2 at 37° C. Cells were passaged 10 times at maximum. Cells were dissociated using 0.05% trypsin-EDTA solution and the cells were seeded in new culture dishes for maintenance.
To examine the cytotoxicity of compounds described herein in human cell lines, SH-SY5Y and 293T cells were used. Approximately 8,000 cells (for 293T) and 15,000 cells (for SH-SY5Y) were plated per well of a 96-well plate (SPL Life Sciences Co., Ltd., Pocheon, Korea). After incubating at 37° C. for 24 hours in a humidified atmosphere containing 5% CO2, the culture medium was replaced by a series of concentrations of test compounds diluted in the corresponding culture medium.
The time of co-incubation was 24 hours and six replicates were made for each measurement. Finally, 10 μL of CCK-8 reagent (Dojindo Laboratories, Rockville, MD) was added to each well, and after incubation at 37° C. for 3 minutes, the OD at 450 nm was measured using a multifunction microplate reader (Tecan Infinite M200 Pro). These measurements were compared to that of a control and expressed as a percentage of the control to calculate cell viability. The IC50 value was calculated using SPSS software. To do this, the absorbance of the blank wells with only growth medium is subtracted from the values or the wells with cells. The readout value of background (vehicle) was set as a 100% viability, and then the percent viability for each test solution was calculated.
The data was presented as the mean value and standard error of the mean (S.E.M.). Statistical analysis was performed with the one-way ANOVA with Tukey's post hoc test (GraphPad Prism 5 software package, version 5.02, GraphPad Software Inc. USA). Significance was accepted at p<0.05.
The cytotoxicity of the compound was evaluated by treating cells with BnH12003 and measuring cell viability.
By treating cells with various BnH12 series compounds and measuring cell viability using the experimental procedure described in Example 2, the cytotoxicity of the compounds was evaluated.

GluN2B = GluN2B protein expression by Western blot in primary cortical neuron cells; type: cell-based, mouse; settings: relative value, vehicle set to 1; primary cortical neurons treated for 24 hours
Procedure: Meanwhile, primary cortical neuron cells were isolated from cerebral cortices of 18-day-old mouse fetuses, incubated in prep media (composition (mM): NaCl 107.5, NaH2PO4 1, NaHCO333.5, glucose 11, HEPS 1%, penicillin-streptomycin 1%) containing 0.25% trypsin and DNasel for 30 minutes, dissociated into single cells, and seeded. Primary cortical neuron cells were grown in Neurobasal medium supplemented with 1% (v/v) B27, 1% penicillin (100 U/mL), streptomycin ([…]), and 1% Glutamax. Cells were maintained in a humidified atmosphere of 95% air and 5% CO2 at 37° C. Drug efficacy was evaluated after culturing primary cortical neuron cells for 14 days.
The amount of GluN2B reacted with the compound of the present disclosure was measured using Western blot. The fetal cerebral cortex was extracted from mice at 17 days of gestation, dissociated into single cells, cultured for 13 days, and treated with BnH drugs for 24 hours. The drug-treated cells were subjected to protein lysate preparation using RIPA protein lysis buffer containing protease and phosphatase inhibitors. The protein concentration was determined using a BCA protein assay kit (Pierce Biotechnology) using bovine serum albumin as a standard. Equal amounts of protein (20 μg per lane) were separated by electrophoresis on SDS-polyacrylamide gels at 90 V for 2 hours, then transferred from the SDS-polyacrylamide gel to PVDF membrane at 100 V for 1 hour. Then, primary reaction with GluN2B antibody (ab65783, Abcam) was performed at 4° C. for 1 day, washed three times at 10-minutes intervals with 1×PBT, and secondary reaction was performed with anti-mouse antibody (sc-2357, Santa Cruz) for 1 hour, followed by washing three times at 10-minutes intervals with 1×PBT. Western blotting was performed as described above to confirm GluN2B protein expression. Subsequently, each blot was re-probed using anti-β-actin antibody (sc-47778, Santa Cruz). Housekeeping protein B-actin was detected as a normalization control.
The increase and decrease of BnH12 series were confirmed by setting the vehicle to 1 (N for each group was 3 or more).
Using the experimental procedure described in Example 3, it was determined whether various BnH12 series compounds increase GluN2B expression, and the results are shown in Table 5. These in vitro experimental results are expressed as relative values to the group (vehicle) that was not treated with the compound, with the effect of the group set to 1.

SMILES | Cell viability test results (CCK) 10 uM (293T cells) [%<] | Cell viability test results (CCK) 100 uM (293T cells) [%<] | Western blot results Mean (GluN2B expression) (GluN2B)
C[C@H]1CC[C@@H](C(=O)O)CN1C(=O)Cc1ccc(-c2ccnnc2)cc1 [BnH12045, (3R,6S)-6-methyl-1-(2-(4-(pyridazin-4-yl)phenyl)acetyl) piperidine-3-carboxylic acid] | 99 | 99 | 1.341
C[C@H]1CC[C@@H](C(=O)O)CN1C(=O)Cc1ccc(-c2ccncc2)cc1 [BnH12043, (3R,6S)-6-methyl-1-(2-(4-(pyridin-4-yl)phenyl)acetyl) piperidine-3-carboxylic acid] | 99 | 99 | 
C[C@H]1CC[C@@H](C(=O)O)CN1C(=O)Cc1ccc(-c2ccco2)cc1 [BnH12056, (3R,6S)-1-(2-(4-(furan-2-yl)phenyl)acetyl)-6-methylpiperidine-3-carboxylic acid] | 95 | 90 | 
C[C@H]1CC[C@@H](C(=O)O)CN1C(=O)Cc1ccc2c(c1)OCCO2 [BnH12037] | 99 | 99 | 
C[C@@H]1CC[C@H](C(=O)O)CN1C(=O)Cc1ccc(-c2cccnc2)cc1 [BnH12066, (3S,6R)-6-methyl-1-(2-(4-(pyridin-3-yl)phenyl)acetyl) piperidine-3-carboxylic acid] | 99 | 90 | 1.514
C[C@H]1CC[C@@H](C(=O)O)CN1C(=O)Cc1ccc(-c2cnc(C3CC3)nc2)cc1 [BnH12052, (3R,6S)-1-(2-(4-(2-cyclopropylpyrimidin-5-yl)phenyl)acetyl)-6-methylpiperidine-3-carboxylic acid] | 80 | 75 | 
COc1ccc(-c2ccc(CC(=O)N3C[C@H](C(=O)O)CC[C@@H]3C)cc2)cn1 [BnH12081, (3R,6S)-1-(2-(4-(6-methoxypyridin-3-yl)phenyl)acetyl)-6-methylpiperidine-3-carboxylic acid] | 85 | 70 | 
C[C@H]1CC[C@@H](C(=O)O)CN1C(=O)Cc1ccc(-c2ccccn2)cc1 [BnH12044, (3R,6S)-6-methyl-1-(2-(4-(pyridin-2-yl)phenyl)acetyl) piperidine-3-carboxylic acid] | 80 | 75 | 
O=C(NO)[C@H]1CCCN1C(=O)Cc1ccc(-c2cncnc2)cc1 [BnH12015, (R)-N-hydroxy-1-(2-(4-(pyrimidin-5-yl)phenyl)acetyl) pyrrolidine-2-carboxamide] | 99 | 99 | 
C[C@H]1CC[C@@H](C(=O)O)CN1C(=O)Cc1ccc(-c2ccc(F)cc2)cc1 [BnH12002, (3R,6S)-1-(2-(4′-fluoro-8 1,l′-biphenyl9-4-yl)acetyl)-6-methylpiperidine-3-carboxylic acid] | 90 | 95 | 
C[C@H]1CC[C@@H](C(=O)O)CN1C(=O)Cc1ccc(-c2ccncn2)cc1 [BnH12054, (3R,6S)-6-methyl-1-(2-(4-(pyrimidin-4-yl)phenyl)acetyl) piperidine-3-carboxylic acid] | 99 | 99 | 
C[C@H]1CC[C@@H](C(=O)O)CN1C(=O)Cc1ccc(-c2ncc(F)cn2)cc1 [BnH12049, (3R,6S)-1-(2-(4-(5-fluoropyrimidin-2-yl)phenyl)acetyl)-6-methylpiperidine-3-carboxylic acid] | 90 | 85 | 
Cc1ccc(-c2ccc(CC(=O)N3C[C@H](C(=O)O)CC[C@@H]3C)cc2)cn1 [BnH12084, (3R,6S)-6-methyl-1-(2-(4-(6-methylpyridin-3-yl)phenyl)acetyl) piperidine-3-carboxylic acid] | 80 | 70 | 
C[C@H]1CC[C@@H](C(=O)O)CN1C(=O)c1ccc(-c2cccnc2)cc1 [BnH12080, (3R,6S)-6-methyl-1-(4-(pyridin-3-yl)benzoyl) piperidine-3-carboxylic acid] | 85 | 85 | 
C[C@H]1CC[C@@H](C(=O)O)CN1C(=O)Cc1ccc(-c2ccc(C3CC3)nc2)cc1 [BnH12082, (3R,6S)-1-(2-(4-(6-cyclopropylpyridin-3-yl)phenyl)acetyl)-6-methylpiperidine-3-carboxylic acid] | 90 | 90 | 
C[C@H]1CC[C@@H](C(=O)O)CN1C(=O)Cc1ccc(-c2ccc([N+](=O)[O-])cc2)cc1 [BnH12077, (3R,6S)-6-methyl-1-(2-(4'-nitro-[1,1'-biphenyl]-4-yl)acetyl)piperidine-3-carboxylic acid] | 99 | 60 | 
C[C@H]1CC[C@@H](C(=O)O)CN1C(=O)Cc1ccc(-c2cccs2)cc1 [BnH12055, (3R,6S)-6-methyl-1-(2-(4-(thiophen-2-yl)phenyl)acetyl) piperidine-3-carboxylic acid] | 90 | 60 | 
C[C@H]1CC[C@@H](C(=O)O)CN1C(=O)Cc1ccc2nccnc2c1 [BnH12036, (3R,6S)-6-methyl-1-(2-(quinoxalin-6-yl)acetyl) piperidine-3-carboxylic acid] | 95 | 95 | 
C[C@H]1CC[C@@H](C(=O)O)CN1C(=O)Cc1ccc(-c2ccccc2)cc1 [BnH12042] | 95 | 90 | 
C[C@H]1CC[C@@H](C(=O)O)CN1C(=O)Cc1ccc(-c2ccc(C(F)(F)F)nc2)cc1 [BnH12083, (3R,6S)-6-methyl-1-(2-(4-(6-(trifluoromethyl)pyridin-3-yl)phenyl)acetyl) piperidine-3-carboxylic acid] | 95 | 75 | 
C[C@H]1CC[C@@H](C(=O)O)CN1C(=O)Cc1ccc(-c2ccc(-c3ccccc3)nc2)cc1 [BnH12087, (3R,6S)-6-methyl-1-(2-(4-(6-phenylpyridin-3-yl)phenyl)acetyl) piperidine-3-carboxylic acid] | 85 | 45 | 
C[C@H]1CC[C@@H](C(N)=O)CN1C(=O)Cc1ccc(-c2ncc(F)cn2)cc1 [BnH12059, (3R,6S)-1-(2-(4-(5-fluoropyrimidin-2-yl)phenyl)acetyl)-6-methylpiperidine-3-carboxamide] | 90 | 70 | 
